Reference: ChEMBL document CHEMBL1201861, “Genomics of Drug Sensitity in Cancer screening data, Wellcome Trust Sanger Institute”

Assays:
Assay in all cases: cells
ES5 = format: functional, cell-based, Homo sapiens; settings: Homo sapiens, ES5;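 also: growth inhibition of human ES5 cells, read out by a cell viability assay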
Description: SANGER: Inhibition of human ES5 cell growth in a cell viability assay.

VA-ES-BJ = format: functional, cell-based, Homo sapiens; settings: Homo sapiens, VA-ES-BJ;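 also: growth inhibition of the VA-ES-BJ cell line, read out by a cell viability assay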
Description: SANGER: Inhibition of human VA-ES-BJ cell growth in a cell viability assay.

DB = format: functional, cell-based, Homo sapiens; settings: Homo sapiens, DB
Description: SANGER: Inhibition of human DB cell growth in a cell viability assay.

TE-11 = format: functional, cell-based; settings: Homo sapiens;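 also: growth inhibition of human TE-11 cells, read out by a cell viability assay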
Description: SANGER: Inhibition of human TE-11 cell growth in a cell viability assay.

HL-60 = format: functional, cell-based, Homo sapiens; settings: Homo sapiens, HL-60;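 also: growth inhibition of human HL-60 cells, read out with a cell viability assay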
Description: SANGER: Inhibition of human HL-60 cell growth in a cell viability assay.

TGBC24TKB = format: functional, cell-based; settings: Homo sapiens;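 also: growth inhibition of human TGBC24TKB cells, read out with a cell viability assay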
Description: SANGER: Inhibition of human TGBC24TKB cell growth in a cell viability assay.

ES4 = format: functional, cell-based, Homo sapiens; settings: Homo sapiens, ES4;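 also: growth inhibition of human ES4 cells, read out by a cell viability assay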
Description: SANGER: Inhibition of human ES4 cell growth in a cell viability assay.

MC116 = format: functional, cell-based, Homo sapiens; settings: Homo sapiens, MC116;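 also: growth inhibition of MC116 cells, read out with a cell viability assay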
Description: SANGER: Inhibition of human MC116 cell growth in a cell viability assay.

NCI-H1650 = format: functional, cell-based, Homo sapiens; settings: Homo sapiens, NCI-H1650;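 also: growth inhibition of human NCI-H1650 cells measured by a cell viability assay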
Description: SANGER: Inhibition of human NCI-H1650 cell growth in a cell viability assay.

EKVX = format: functional, cell-based, Homo sapiens; settings: Homo sapiens, EKVX;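 also: growth inhibition of human EKVX cells, read out with a cell viability assay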
Description: SANGER: Inhibition of human EKVX cell growth in a cell viability assay.

NOS-1 = format: functional, cell-based, Homo sapiens; settings: Homo sapiens, NOS-1;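 also: growth inhibition of the human NOS-1 cell line, read out with a cell viability assay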
Description: SANGER: Inhibition of human NOS-1 cell growth in a cell viability assay.

RPMI-8866 = format: functional, cell-based, Homo sapiens; settings: Homo sapiens, RPMI-8866
Description: SANGER: Inhibition of human RPMI-8866 cell growth in a cell viability assay.

HT-144 = format: functional, cell-based, Homo sapiens; settings: Homo sapiens, HT-144
Description: SANGER: Inhibition of human HT-144 cell growth in a cell viability assay.

GI-ME-N = format: functional, cell-based, Homo sapiens; settings: Homo sapiens, GI-ME-N;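 also: growth inhibition of human GI-ME-N cells, read out with a cell viability assay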
Description: SANGER: Inhibition of human GI-ME-N cell growth in a cell viability assay.

RXF 393 = format: functional, cell-based, Homo sapiens; settings: Homo sapiens, RXF 393;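 also: growth inhibition of human RXF 393 cells, read out with a cell viability assay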
Description: SANGER: Inhibition of human RXF393 cell growth in a cell viability assay.

KS-1 = format: functional, cell-based; settings: Homo sapiens;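 also: growth inhibition of KS-1 cells, read out with a cell viability assay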
Description: SANGER: Inhibition of human KS-1 cell growth in a cell viability assay.

CTB-1 = format: functional, cell-based, Homo sapiens; settings: Homo sapiens, CTB-1
Description: SANGER: Inhibition of human CTB-1 cell growth in a cell viability assay.

K562 = format: functional, cell-based, Homo sapiens; settings: Homo sapiens, K562
Description: SANGER: Inhibition of human K-562 cell growth in a cell viability assay.

SK-MEL-1 = format: functional, cell-based, Homo sapiens; settings: Homo sapiens, SK-MEL-1;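 also: growth inhibition of human SK-MEL-1 cells, read out by a cell viability assay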
Description: SANGER: Inhibition of human SK-MEL-1 cell growth in a cell viability assay.

SW982 = format: functional, cell-based; settings: Homo sapiens;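 also: growth inhibition of SW982 cells, read out with a cell viability assay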
Description: SANGER: Inhibition of human SW982 cell growth in a cell viability assay.

MSTO-211H = format: functional, cell-based, Homo sapiens; settings: Homo sapiens, MSTO-211H
Description: SANGER: Inhibition of human MSTO-211H cell growth in a cell viability assay.

SCC-15 = format: functional, cell-based, Homo sapiens; settings: Homo sapiens, SCC-15;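 also: growth inhibition of SCC-15 cells, read out with a cell viability assay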
Description: SANGER: Inhibition of human SCC-15 cell growth in a cell viability assay.

697 = format: functional, cell-based, Homo sapiens; settings: Homo sapiens
Description: SANGER: Inhibition of human 697 cell growth in a cell viability assay.

IST-MEL1 = format: functional, cell-based, Homo sapiens; settings: Homo sapiens, IST-MEL1;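 also: growth inhibition of the cell line, read out with a cell viability assay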
Description: SANGER: Inhibition of human IST-MEL1 cell growth in a cell viability assay.

MN-60 = format: functional, cell-based, Homo sapiens; settings: Homo sapiens, MN-60;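 also: growth inhibition of the MN-60 cell line, determined with a cell viability assay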
Description: SANGER: Inhibition of human MN-60 cell growth in a cell viability assay.

RCC10RGB = format: functional, cell-based, Homo sapiens; settings: Homo sapiens, RCC10RGB;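 also: growth inhibition of human RCC10RGB cells, read out by a cell viability assay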
Description: SANGER: Inhibition of human RCC10RGB cell growth in a cell viability assay.

KP-N-YS = format: functional, cell-based, Homo sapiens; settings: Homo sapiens, KP-N-YS;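 also: cell viability assay measuring inhibition of cell line growth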
Description: SANGER: Inhibition of human KP-N-YS cell growth in a cell viability assay.

TGBC1TKB = format: functional, cell-based, Homo sapiens; settings: Homo sapiens, TGBC1TKB;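 also: growth inhibition of TGBC1TKB cells, read out by a cell viability assay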
Description: SANGER: Inhibition of human TGBC1TKB cell growth in a cell viability assay.

SH-4 = format: functional, cell-based; settings: Homo sapiens;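 also: growth inhibition of SH-4 cells, read out with a cell viability assay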
Description: SANGER: Inhibition of human SH-4 cell growth in a cell viability assay.

ETK-1 = format: functional, cell-based, Homo sapiens; settings: Homo sapiens, ETK-1;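 also: growth inhibition of human ETK-1 cells, read out with a cell viability assay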
Description: SANGER: Inhibition of human ETK-1 cell growth in a cell viability assay.

KNS-42 = format: functional, cell-based; settings: Homo sapiens;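 also: growth inhibition of KNS-42 cells, read out with a cell viability assay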
Description: SANGER: Inhibition of human KNS-42 cell growth in a cell viability assay.

no-10 = format: functional, cell-based, Homo sapiens; settings: Homo sapiens;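 also: growth inhibition of no-10 cells, read out with a cell viability assay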
Description: SANGER: Inhibition of human no-10 cell growth in a cell viability assay.

MZ1-PC = format: functional, cell-based, Homo sapiens; settings: Homo sapiens, MZ1-PC;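 also: cell viability assay measuring growth inhibition of human MZ1-PC cells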
Description: SANGER: Inhibition of human MZ1-PC cell growth in a cell viability assay.

ONS-76 = format: functional, cell-based, Homo sapiens; settings: Homo sapiens, ONS-76;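 also: growth inhibition of human ONS-76 cells, read out with a cell viability assay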
Description: SANGER: Inhibition of human ONS-76 cell growth in a cell viability assay.

NCI-H2126 = format: functional, cell-based, Homo sapiens; settings: Homo sapiens, NCI-H2126;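 also: growth inhibition of the cancer cell line, determined with a cell viability readout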
Description: SANGER: Inhibition of human NCI-H2126 cell growth in a cell viability assay.

SF-539 = format: functional, cell-based, Homo sapiens; settings: Homo sapiens, SF-539;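 also: Read-out is a cell viability assay, with IC50 reflecting inhibition of cell growth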
Description: SANGER: Inhibition of human SF539 cell growth in a cell viability assay.

NCI-H446 = format: functional, cell-based, Homo sapiens; settings: Homo sapiens, NCI-H446;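 also: growth inhibition of NCI-H446 cells determined by a cell viability assay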
Description: SANGER: Inhibition of human NCI-H446 cell growth in a cell viability assay.

BB49-HNC = format: functional, cell-based, Homo sapiens; settings: Homo sapiens, BB49-HNC;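 also: cell viability assay read-out, reported as inhibition of BB49-HNC cell growth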
Description: SANGER: Inhibition of human BB49-HNC cell growth in a cell viability assay.

KURAMOCHI = format: functional, cell-based, Homo sapiens; settings: Homo sapiens, KURAMOCHI;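 also: growth inhibition of KURAMOCHI cells, read out with a cell viability assay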
Description: SANGER: Inhibition of human KURAMOCHI cell growth in a cell viability assay.

GOTO = format: functional, cell-based, Homo sapiens; settings: Homo sapiens, GOTO;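 also: growth inhibition of GOTO cells, read out by a cell viability assay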
Description: SANGER: Inhibition of human GOTO cell growth in a cell viability assay.

LB831-BLC = format: functional, cell-based, Homo sapiens; settings: Homo sapiens, LB831-BLC;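 also: growth inhibition of LB831-BLC cells, read out with a cell viability assay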
Description: SANGER: Inhibition of human LB831-BLC cell growth in a cell viability assay.

KALS-1 = format: functional, cell-based, Homo sapiens; settings: Homo sapiens, KALS-1; read-out: IC50;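 also: growth inhibition of KALS-1 cells, determined with a cell viability assay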
Description: SANGER: Inhibition of human KALS-1 cell growth in a cell viability assay.

EM-2 = format: functional, cell-based, Homo sapiens; settings: Homo sapiens, EM-2;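 also: growth inhibition of EM-2 cells, read out with a cell viability assay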
Description: SANGER: Inhibition of human EM-2 cell growth in a cell viability assay.

KGN = format: functional, cell-based, Homo sapiens; settings: Homo sapiens, KGN;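 also: growth inhibition of KGN cells, read out with a cell viability assay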
Description: SANGER: Inhibition of human KGN cell growth in a cell viability assay.

Mo = format: functional, cell-based, Homo sapiens; settings: Homo sapiens, Mo
Description: SANGER: Inhibition of human Mo-T cell growth in a cell viability assay.

TGW = format: functional, cell-based, Homo sapiens; settings: Homo sapiens, TGW;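 also: growth inhibition of human TGW cells, read out with a cell viability assay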
Description: SANGER: Inhibition of human TGW cell growth in a cell viability assay.

LU-139 = format: functional, cell-based, Homo sapiens; settings: Homo sapiens, LU-139
Description: SANGER: Inhibition of human LU-139 cell growth in a cell viability assay.

JVM-2 = format: functional, cell-based, Homo sapiens; settings: Homo sapiens, JVM-2;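 also: growth inhibition of JVM-2 cells determined by a cell viability assay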
Description: SANGER: Inhibition of human JVM-2 cell growth in a cell viability assay.

EW-3 = format: functional, cell-based, Homo sapiens; settings: Homo sapiens, EW-3;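 also: cell viability assay read-out, IC50 reflects inhibition of growth of the EW-3 cells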
Description: SANGER: Inhibition of human EW-3 cell growth in a cell viability assay.

KU812 cell line = format: functional, cell-based, Homo sapiens; settings: Homo sapiens, KU812;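 also: growth inhibition of KU812 cells, read out with a cell viability assay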
Description: SANGER: Inhibition of human KU812 cell growth in a cell viability assay.

HCC2218 = format: functional, cell-based, Homo sapiens; settings: Homo sapiens, HCC2218;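 also: cell viability assay read-out, with IC50 given as the concentration that inhibits growth of the cell line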
Description: SANGER: Inhibition of human HCC2218 cell growth in a cell viability assay.

For `CS(=O)(=O)N1CCN(Cc2cc3nc(-c4cccc5[nH]ncc45)nc(N4CCOCC4)c3s2)CC1` [PICTILISIB], the IC50 (ES5) was 50.2 nM, the IC50 (VA-ES-BJ) was 1610 nM and the IC50 (DB) was > 4000 nM. For the same compound, the IC50 (TE-11) was > 4000 nM, the IC50 (HL-60) was 426 nM and the IC50 (TGBC24TKB) was 1080 nM. For the same compound, the IC50 (ES4) was 640 nM, the IC50 (MC116) was > 4000 nM and the IC50 (NCI-H1650) was > 4000 nM. For the same compound, the IC50 (EKVX) was 1010 nM, the IC50 (NOS-1) was 212 nM and the IC50 (RPMI-8866) was > 4000 nM. For the same compound, the IC50 (HT-144) was > 4000 nM, the IC50 (GI-ME-N) was > 4000 nM and the IC50 (RXF 393) was > 4000 nM. For the same compound, the IC50 (KS-1) was 2110 nM, the IC50 (CTB-1) was 1140 nM and the IC50 (K562) was > 4000 nM. For the same compound, the IC50 (SK-MEL-1) was 1310 nM, the IC50 (SW982) was > 4000 nM and the IC50 (MSTO-211H) was > 4000 nM. For the same compound, the IC50 (SCC-15) was > 4000 nM, the IC50 697 was 832 nM and the IC50 (IST-MEL1) was > 4000 nM. The IC50 (MN-60) was > 4000 nM, the IC50 (RCC10RGB) was > 4000 nM and the IC50 (KP-N-YS) was > 4000 nM. For the same compound, the IC50 (TGBC1TKB) was > 4000 nM, the IC50 (SH-4) was > 4000 nM and the IC50 (ETK-1) was > 4000 nM. For the same compound, the IC50 (KNS-42) was > 4000 nM, the IC50 (no-10) was > 4000 nM and the IC50 (MZ1-PC) was > 4000 nM. For the same compound, the IC50 (ONS-76) was > 4000 nM, the IC50 (NCI-H2126) was > 4000 nM and the IC50 (SF-539) was > 4000 nM. The IC50 (NCI-H446) was > 4000 nM, the IC50 (BB49-HNC) was 1890 nM and the IC50 (KURAMOCHI) was > 4000 nM. The IC50 (GOTO) was > 4000 nM, the IC50 (LB831-BLC) was > 4000 nM and the IC50 (KALS-1) was > 4000 nM. For the same compound, the IC50 (EM-2) was 2510 nM, the IC50 (KGN) was > 4000 nM and the IC50 (Mo) was > 4000 nM. For the same compound, the IC50 (TGW) was > 4000 nM.
In the case of `CC(C)C[C@H](NC(=O)[C@H](Cc1ccccc1)NC(=O)c1cnccn1)B(O)O` [BORTEZOMIB], the IC50 (ES5) is reported as 10.4 nM, the IC50 (VA-ES-BJ) is reported as 1.09 nM and the IC50 (DB) is reported as 3.41 nM. The IC50 (LU-139) was 5.13 nM, the IC50 (HL-60) was 4.67 nM and the IC50 (ES4) was 2.16 nM. The IC50 (MC116) was > 20 nM, the IC50 (NCI-H1650) was > 20 nM and the IC50 (EKVX) was 2.14 nM. The IC50 (NOS-1) was 2.11 nM, the IC50 (RPMI-8866) was > 20 nM and the IC50 (HT-144) was 0.576 nM. The IC50 (GI-ME-N) was 0.634 nM, the IC50 (RXF 393) was 0.914 nM and the IC50 (KS-1) was 0.34 nM. The IC50 (CTB-1) was 9.67 nM, the IC50 (K562) was 4.12 nM and the IC50 (SK-MEL-1) was > 20 nM. For the same compound, the IC50 (JVM-2) was 7.28 nM, the IC50 (MSTO-211H) was > 20 nM and the IC50 (SCC-15) was > 20 nM. The IC50 (EW-3) was > 20 nM, the IC50 697 was 1.99 nM and the IC50 (IST-MEL1) was 0.917 nM. It also gave an IC50 (KU812 cell line) of 2.42 nM, an IC50 (MN-60) of 8.14 nM and an IC50 (RCC10RGB) of 3.93 nM. For the same compound, the IC50 (KP-N-YS) was > 20 nM, the IC50 (TGBC1TKB) was 1.71 nM and the IC50 (SH-4) was 0.173 nM. It also gave an IC50 (ETK-1) of 2.84 nM, an IC50 (KNS-42) of 0.258 nM and an IC50 (no-10) of 0.21 nM. The IC50 (MZ1-PC) was 3.54 nM, the IC50 (ONS-76) was 0.33 nM and the IC50 (NCI-H2126) was 1.8 nM. For the same compound, the IC50 (SF-539) was > 20 nM, the IC50 (NCI-H446) was > 20 nM and the IC50 (BB49-HNC) was 0.652 nM. For the same compound, the IC50 (HCC2218) was 19.5 nM, the IC50 (KURAMOCHI) was 1.72 nM and the IC50 (GOTO) was 17.1 nM. It also gave an IC50 (LB831-BLC) of 0.641 nM, an IC50 (KALS-1) of 0.925 nM and an IC50 (EM-2) of 1.16 nM. For the same compound, the IC50 (KGN) was 2.15 nM, the IC50 (Mo) was 2.74 nM and the IC50 (TGW) was 16.5 nM.
